Laboratory results: PubChem BioAssay AID248 (DTP/NCI, 2004)
“And” between values parts separate entries of the source, which are not always exact repeats. Equal entries are not always repeated. Toxic doses and inconclusive results are not listed. Cut-off read from the data, not from the text of the source: active = T/C of 150% or more; inactive = T/C below 125%.

System: L1210 leukemia ip in BDF1 mice, survival T/C
Experiment: NCI In Vivo Anticancer Drug Screen. Data for tumor model L1210 Leukemia (intraperitoneal) in B6D2F1 (BDF1) mice
Settings: endpoint: mean survival time, higher = longer survival
In short: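 Antitumor effect is assessed in tumor-bearing animals. Survival in the compound arm is compared with a vehicle-dosed control arm and expressed as their quotient.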

[1] = dose: 100.0 mg/kg/injection, schedule: Q04DX003 (ip), vehicle: Klucel (hydroxypropylcellulose) (HPC)
[2] = dose: 200.0 mg/kg/injection, schedule: Q04DX003 (ip), vehicle: Klucel (hydroxypropylcellulose) (HPC)
[3] = dose: 400.0 mg/kg/injection, schedule: Q04DX003 (ip), vehicle: Klucel (hydroxypropylcellulose) (HPC)
[4] = dose: 12.5 mg/kg/injection, schedule: Q01DX009 (ip), vehicle: Klucel (hydroxypropylcellulose) (HPC)
[5] = dose: 50.0 mg/kg/injection, schedule: Q01DX009 (ip), vehicle: Klucel (hydroxypropylcellulose) (HPC)
[6] = dose: 100.0 mg/kg/injection, schedule: Q01DX009 (ip), vehicle: Klucel (hydroxypropylcellulose) (HPC)
[7] = dose: 200.0 mg/kg/injection, schedule: Q01DX009 (ip), vehicle: Klucel (hydroxypropylcellulose) (HPC)
[8] = dose: 25.0 mg/kg/injection, schedule: Q04DX003 (ip), vehicle: Klucel (hydroxypropylcellulose) (HPC)
[9] = dose: 50.0 mg/kg/injection, schedule: Q01DX001 (ip), vehicle: carboxymethylcellulose (CMC)
[10] = dose: 100.0 mg/kg/injection, schedule: Q01DX001 (ip), vehicle: carboxymethylcellulose (CMC)
[11] = dose: 200.0 mg/kg/injection, schedule: Q01DX001 (ip), vehicle: carboxymethylcellulose (CMC)
[12] = dose: 400.0 mg/kg/injection, schedule: Q01DX001 (ip), vehicle: carboxymethylcellulose (CMC)
[13] = dose: 100.0 mg/kg/injection, schedule: Q01DX001 (ip), vehicle: saline
[14] = dose: 200.0 mg/kg/injection, schedule: Q01DX001 (ip), vehicle: saline
[15] = dose: 400.0 mg/kg/injection, schedule: Q01DX001 (ip), vehicle: saline
[16] = dose: 50.0 mg/kg/injection, schedule: Q01DX009 (ip), vehicle: saline
[17] = dose: 100.0 mg/kg/injection, schedule: Q01DX009 (ip), vehicle: saline
[18] = dose: 100.0 mg/kg/injection, schedule: Q04DX003 (ip), vehicle: saline
[19] = dose: 200.0 mg/kg/injection, schedule: Q01DX009 (ip), vehicle: saline
[20] = dose: 200.0 mg/kg/injection, schedule: Q04DX003 (ip), vehicle: saline
[21] = dose: 400.0 mg/kg/injection, schedule: Q04DX003 (ip), vehicle: saline
[22] = dose: 75.0 mg/kg/injection, schedule: Q01DX001 (ip), vehicle: carboxymethylcellulose (CMC)
[23] = dose: 150.0 mg/kg/injection, schedule: Q01DX001 (ip), vehicle: carboxymethylcellulose (CMC)

Measured: T/C

O=C(Nc1ccccc1)N1CCN=C1C1CCCc2ccccc21 (centres undefined)
inactive: dose: 100.0 mg/kg/injection, schedule: Q04DX002 (ip), vehicle: saline with Tween-80 89 % of control | dose: 200.0 mg/kg/injection, schedule: Q04DX002 (ip), vehicle: saline with Tween-80 89 % of control | dose: 400.0 mg/kg/injection, schedule: Q04DX002 (ip), vehicle: saline with Tween-80 86 % of control

Cc1[nH]c(=S)[nH]c(=O)c1CCC(C)C
inactive: [1] 113 % of control | [2] 100 % of control | [3] 106 % of control

CC(C)COC(=O)CCCc1ccc(N(CCCl)CCCl)cc1
inactive: dose: 100.0 mg/kg/injection, schedule: Q04DX002 (ip), vehicle: saline 121 % of control | dose: 200.0 mg/kg/injection, schedule: Q04DX002 (ip), vehicle: saline 111 % of control

C/C(=N\NC(N)=S)C(O)c1ccccc1 (centres undefined)
inactive: dose: 5.0 mg/kg/injection, schedule: Q01DX001 (ip), vehicle: other 105 % of control | dose: 10.0 mg/kg/injection, schedule: Q01DX001 (ip), vehicle: other 100 % of control | dose: 20.0 mg/kg/injection, schedule: Q01DX001 (ip), vehicle: other 105 % of control | dose: 40.0 mg/kg/injection, schedule: Q01DX001 (ip), vehicle: other 100 % of control | dose: 80.0 mg/kg/injection, schedule: Q01DX001 (ip), vehicle: other 105 % of control

O=NN(CCCl)C(=O)NC1c2cc(Cl)ccc2-c2c(Cl)cc(Cl)cc21 (centres undefined)
inactive: dose: 6.6 mg/kg/injection, schedule: Q04DX003 (ip), vehicle: Klucel (hydroxypropylcellulose) (HPC) 103 % of control | dose: 9.9 mg/kg/injection, schedule: Q04DX003 (ip), vehicle: Klucel (hydroxypropylcellulose) (HPC) 116 % of control | [4] 115 % of control | dose: 20.0 mg/kg/injection, schedule: Q04DX003 (ip), vehicle: Klucel (hydroxypropylcellulose) (HPC) 102 % of control | dose: 25.0 mg/kg/injection, schedule: Q01DX009 (ip), vehicle: Klucel (hydroxypropylcellulose) (HPC) 124 % of control | dose: 40.0 mg/kg/injection, schedule: Q04DX003 (ip), vehicle: Klucel (hydroxypropylcellulose) (HPC) 119 % of control
active: [5] 232 % of control | [6] 252 % of control | dose: 115.0 mg/kg/injection, schedule: Q04DX003 (ip), vehicle: Klucel (hydroxypropylcellulose) (HPC) 154 % of control | dose: 200.0 mg/kg/injection, schedule: Q01DX001 (ip), vehicle: Klucel (hydroxypropylcellulose) (HPC) 153 % of control | [7] 267 % of control | [2] 174 % of control | dose: 400.0 mg/kg/injection, schedule: Q01DX001 (ip), vehicle: Klucel (hydroxypropylcellulose) (HPC) 170 % of control | dose: 400.0 mg/kg/injection, schedule: Q01DX009 (ip), vehicle: Klucel (hydroxypropylcellulose) (HPC) 273 % of control | [3] 157 % of control and 261 % of control

CC1=C(Cl)C(Cl)(Cl)C(=O)C(=O)C1(Cl)Cl
inactive: dose: 6.25 mg/kg/injection, schedule: Q01DX009 (ip), vehicle: saline sonified 100 % of control | dose: 6.25 mg/kg/injection, schedule: Q04DX003 (ip), vehicle: Klucel (hydroxypropylcellulose) (HPC) 100 % of control | dose: 12.5 mg/kg/injection, schedule: Q01DX009 (ip), vehicle: saline sonified 102 % of control | dose: 12.5 mg/kg/injection, schedule: Q04DX003 (ip), vehicle: Klucel (hydroxypropylcellulose) (HPC) 95 % of control | dose: 25.0 mg/kg/injection, schedule: Q01DX009 (ip), vehicle: saline sonified 92 % of control | [8] 95 % of control

O=c1[nH]c(-c2ccccc2)nc(CN2CCCCC2)c1O
inactive: [9] 101 % of control | [10] 101 % of control | [11] 98 % of control | [12] 95 % of control

O=C(O)C12C3(Cl)C4(Cl)C(O)(O)C5(Cl)C3(Cl)C1(Cl)C5(Cl)C42Cl (centres undefined)
inactive: dose: 50.0 mg/kg/injection, schedule: Q01DX001 (ip), vehicle: saline 102 % of control | [13] 105 % of control | [14] 96 % of control | [15] 110 % of control

CN1C(=O)OC(C)(C)C1=O
inactive: dose: 25.0 mg/kg/injection, schedule: Q01DX009 (ip), vehicle: saline 98 % of control | dose: 25.0 mg/kg/injection, schedule: Q04DX003 (ip), vehicle: saline 93 % of control | [16] 95 % of control | dose: 50.0 mg/kg/injection, schedule: Q04DX003 (ip), vehicle: saline 109 % of control | [17] 102 % of control | [18] 98 % of control | [19] 96 % of control | [20] 109 % of control | dose: 400.0 mg/kg/injection, schedule: Q01DX009 (ip), vehicle: saline 106 % of control | [21] 98 % of control

COc1c(OC)c(OC)c2c(c1OC)c(=O)c1ccccc1n2C
inactive: [9] 93 % of control | [10] 102 % of control | [11] 96 % of control | [12] 98 % of control

O=C(OCCBr)Oc1cccc2ccccc12
inactive: [10] 98 % of control | [11] 93 % of control | [12] 95 % of control

CC1(C)OC(CCl)C2OC(C)(C)OC(CCl)C2O1 (centres undefined)
inactive: [13] 93 % of control | [14] 88 % of control | [15] 104 % of control

OCC1OC(n2c3ccccc3c3ccccc32)C(O)C1O (centres undefined)
inactive: dose: 60.0 mg/kg/injection, schedule: Q04DX002 (ip), vehicle: DMSO 97 % of control | dose: 120.0 mg/kg/injection, schedule: Q04DX002 (ip), vehicle: DMSO 102 % of control

C1=C2NNC(c3ccccc3)=C(c3ccccc3)C2=CCC1 (tested in a mixture with another compound)
inactive: [5] 94 % of control | [6] 90 % of control | [7] 90 % of control

CC(=O)C1CC(CC(=O)O)C1(C)C (centres undefined)
inactive: [5] 95 % of control | [6] 100 % of control | [1] 101 % of control | [7] 97 % of control | [2] 101 % of control | [3] 97 % of control

C(=N/OC(c1ccccc1)(c1ccccc1)c1ccccc1)/c1ccccc1
inactive: [16] 98 % of control | dose: 75.0 mg/kg/injection, schedule: Q04DX003 (ip), vehicle: saline 92 % of control | [17] 104 % of control | [1] 101 % of control | [18] 95 % of control | dose: 150.0 mg/kg/injection, schedule: Q04DX003 (ip), vehicle: saline 94 % of control | [19] 98 % of control | [2] 103 % of control | [20] 95 % of control | dose: 300.0 mg/kg/injection, schedule: Q04DX003 (ip), vehicle: saline 89 % of control | [3] 101 % of control | [21] 95 % of control

CCC(=O)NC1=CC(=O)c2ccccc2C1=O
inactive: [22] 98 % of control | [23] 97 % of control | dose: 300.0 mg/kg/injection, schedule: Q01DX001 (ip), vehicle: carboxymethylcellulose (CMC) 95 % of control

O=Nc1ccc(NO)cc1
inactive: dose: 100.0 mg/kg/injection, schedule: Q04DX003 (ip), vehicle: saline with Tween-80 98 % of control and 100 % of control | dose: 200.0 mg/kg/injection, schedule: Q04DX003 (ip), vehicle: saline with Tween-80 98 % of control and 100 % of control | dose: 400.0 mg/kg/injection, schedule: Q04DX003 (ip), vehicle: saline with Tween-80 108 % of control and 91 % of control

O=C(NO)c1ccc(F)cc1
inactive: [10] 103 % of control | [11] 97 % of control | [12] 92 % of control

CC(=O)NCCc1ccc(N)cc1
inactive: [13] 108 % of control | [14] 101 % of control | [15] 98 % of control

CCC(CC)(C(=O)O)C(=O)O
inactive: [8] 93 % of control | dose: 50.0 mg/kg/injection, schedule: Q04DX003 (ip), vehicle: Klucel (hydroxypropylcellulose) (HPC) 90 % of control | [1] 96 % of control and 88 % of control

O=[As](O)(O)CCCc1ccccc1
inactive: dose: 6.25 mg/kg/injection, schedule: Q01DX009 (ip), vehicle: Klucel (hydroxypropylcellulose) (HPC) 108 % of control | [4] 108 % of control

CCN(CC)COC(=O)C(C)(C)C
inactive: [22] 103 % of control | [23] 94 % of control
